This is an account of results in patent US20240199546A1, “INHIBITORS OF SOLUTE CARRIER FAMILY 6A MEMBER 19 (SLC6A19) AND METHODS OF USE THEREOF” (Maze Therapeutics, Inc., priority 2022, published 2024).

Test [1] addresses T1, human SLC6A19 and TMEM27 (Homo sapiens, UniProt Q695T7).
T1 construct: expressed in transfected cells
T1 sequence (Q695T7 1-634): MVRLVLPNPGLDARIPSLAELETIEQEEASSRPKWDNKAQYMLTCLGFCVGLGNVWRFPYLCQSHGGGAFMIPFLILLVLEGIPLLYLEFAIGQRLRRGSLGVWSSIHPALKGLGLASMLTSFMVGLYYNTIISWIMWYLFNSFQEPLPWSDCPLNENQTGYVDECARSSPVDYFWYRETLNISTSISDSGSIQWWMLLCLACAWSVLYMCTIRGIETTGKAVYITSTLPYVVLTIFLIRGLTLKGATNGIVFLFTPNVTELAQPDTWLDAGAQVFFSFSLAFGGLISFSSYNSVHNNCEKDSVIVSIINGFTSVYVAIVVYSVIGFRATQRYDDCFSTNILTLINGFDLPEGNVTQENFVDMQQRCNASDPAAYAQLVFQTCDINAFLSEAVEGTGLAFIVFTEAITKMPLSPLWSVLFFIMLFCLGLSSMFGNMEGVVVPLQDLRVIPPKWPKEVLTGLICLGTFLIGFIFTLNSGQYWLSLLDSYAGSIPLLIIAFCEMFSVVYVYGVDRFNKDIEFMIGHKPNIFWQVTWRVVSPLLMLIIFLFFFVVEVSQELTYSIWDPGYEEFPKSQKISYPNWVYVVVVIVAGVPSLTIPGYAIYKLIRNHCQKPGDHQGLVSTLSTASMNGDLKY
T1 sequence (Q9HBJ8 15-222 partner): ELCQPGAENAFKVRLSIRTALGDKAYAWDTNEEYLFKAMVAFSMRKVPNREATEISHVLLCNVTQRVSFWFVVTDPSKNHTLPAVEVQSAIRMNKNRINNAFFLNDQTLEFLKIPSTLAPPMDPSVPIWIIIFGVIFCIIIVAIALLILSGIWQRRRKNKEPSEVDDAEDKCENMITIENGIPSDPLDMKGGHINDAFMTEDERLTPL
Description: 13C6,15N-isoleucine uptake in CHO cells with doxycycline-inducible expression of human SLC6A19 and TMEM27, RapidFire mass spectrometry (Example B-2). It counts as cell-based. To be noted: read-out: SLC6A19_RapidFire Uptake Assay IC50. In outline:
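CHO cells induced overnight with doxycycline to express human SLC6A19 plus TMEM27; 20 min preincubation with compound (10-point 2-fold series, duplicate) at 37 °C in HEPES buffer pH 7.2, then 20 min with 13C6,15N-isoleucine. Intracellular label quantified by RapidFire MS against 13C-leucine standard; positive control defined 100% inhibition.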

Test [2] concerns the target T1, human SLC6A19 and TMEM27. The test can be described thus: Radiolabelled (3H) leucine uptake in CHO cells with doxycycline-inducible expression of human SLC6A19 and TMEM27 (Example B-1). Type of test: cell-based. To be noted: CHO cells with doxycycline-inducible expression of human SLC6A19 and TMEM27, read-out: SLC6A19_Radioligand Uptake Assay IC50. In outline:
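CHO cells were induced with doxycycline for 18 h at 37 °C, washed in HBSS, then exposed to compounds for 1 h: 8-point, 3-fold dilutions in duplicate, 0.5% DMSO final. Uptake measured by scintillation counting after 2 h shaking. Activity normalized with positive control as 0% and DMSO as 100%.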

The term pIC50 denotes the negative decadic logarithm of the IC50, by convention in mol/L.

pIC50: −log10 of the molar value. A value given as a limit tells only on which side of the number the result lay.

Regarding `O=C(NCc1cc2cc(Cl)c(OCc3cccc(F)n3)cc2[nH]1)N1CCCC1` [Compound 425, N-((5-chloro-6-((6-fluoropyridin-2-yl)methoxy)-1H-indol-2-yl)methyl)pyrrolidine-1-carboxamide], the pIC50 was 6.94 in test [1] and 6.50 in test [2].
Consider `CC(=O)NCc1cc2cc(Cl)c(NCc3cscn3)cc2[nH]1` [Compound 229, N-((5-chloro-6-((thiazol-4-ylmethyl)amino)-1H-indol-2-yl)methyl)acetamide], for which the pIC50 in test [1] was 6.69; in test [2], 6.80.
On to `Cc1cnc(COc2cc3[nH]c(CNC(=O)C4(C)CC4)cc3cc2Cl)o1` [Compound 70, N-((5-chloro-6-((5-methyloxazol-2-yl)methoxy)-1H-indol-2-yl)methyl)-1-methylcyclopropane-1-carboxamide], for which the pIC50 in test [1] was 7.21; in test [2], 6.93.
The like results for `CC1(C(=O)NCc2cc3cc(Cl)c(OCc4ccon4)cc3[nH]2)CC1` [Compound 46, N-((5-chloro-6-(isoxazol-3-ylmethoxy)-1H-indol-2-yl)methyl)-1-methylcyclopropane-1-carboxamide] were, in that order, 7.21 and 7.15.
As to `O=C(NCc1cc2cc(Cl)c(OCc3cccc(F)n3)cc2[nH]1)C1CC1` [Compound 499, N-((5-chloro-6-((6-fluoropyridin-2-yl)methoxy)-1H-indol-2-yl)methyl)cyclopropanecarboxamide], the negative-log IC50 (pIC50) in test [1] was 7.26; in test [2], 6.67.
The like results for `O=C(NCc1cc2cc(Cl)c(OCc3cscn3)cc2[nH]1)C1CC1` [Compound 147, N-((5-chloro-6-(thiazol-4-ylmethoxy)-1H-indol-2-yl)methyl)cyclopropanecarboxamide] were, in that order, 7.48 and 7.17.
Taken in the same sequence, the figures for `CC1(C(=O)NCc2cc3cc(Cl)c(OCc4cscn4)c(F)c3[nH]2)CC1` [Compound 18, N-((5-chloro-7-fluoro-6-(thiazol-4-ylmethoxy)-1H-indol-2-yl)methyl)-1-methylcyclopropane-1-carboxamide] were 7.04 and 7.11.
Take `CC1(C(=O)NCc2cc3cc(Cl)c(NCc4cscn4)cc3[nH]2)CC1` [Compound 452, N-((5-chloro-6-((thiazol-4-ylmethyl)amino)-1H-indol-2-yl)methyl)-1-methylcyclopropane-1-carboxamide]: the results for the pIC50 in test [1] and in test [2] were 7.20 and 6.84, respectively.
Taken in the same sequence, the figures for `CC1CN(C(=O)NCc2cc3cc(F)c(OCc4cscn4)cc3[nH]2)C1` [Compound 357, N-((5-fluoro-6-(thiazol-4-ylmethoxy)-1H-indol-2-yl)methyl)-3-methylazetidine-1-carboxamide] were 6.36 and 6.38.
Taken in the same sequence, the figures for `Cc1cc2cc(CNC(=O)C3(C)CC3)[nH]c2cc1OCc1cscn1` [Compound 11, 1-methyl-N-((5-methyl-6-(thiazol-4-ylmethoxy)-1H-indol-2-yl)methyl)cyclopropane-1-carboxamide] were 7.12 and 6.93.
`CC1(C(=O)NCc2cc3cc(F)c(OCc4ccon4)cc3[nH]2)CC1` [Compound 6, N-((5-fluoro-6-(isoxazol-3-ylmethoxy)-1H-indol-2-yl)methyl)-1-methylcyclopropane-1-carboxamide]: the pIC50 in test [1] is 6.83; in test [2], 6.76.
Taken in the same sequence, the figures for `Cc1cc(COc2cc3[nH]c(CNC(=O)N4CCC4)cc3cc2Cl)on1` [Compound 404, N-((5-chloro-6-((3-methylisoxazol-5-yl)methoxy)-1H-indol-2-yl)methyl)azetidine-1-carboxamide] were 6.83 and 6.57.
Taken in the same sequence, the figures for `CC1(C(=O)NCc2cc3cc(CC(F)(F)F)c(OCc4cscn4)cc3[nH]2)CC1` [Compound 648, 1-methyl-N-((6-(thiazol-4-ylmethoxy)-5-(2,2,2-trifluoroethyl)-1H-indol-2-yl)methyl)cyclopropane-1-carboxamide] were 6.46 and 6.11.
Take `CNC(=O)NCc1cc2cc(Cl)c(OCc3cc(C)no3)cc2[nH]1` [Compound 211, 1-((5-chloro-6-((3-methylisoxazol-5-yl)methoxy)-1H-indol-2-yl)methyl)-3-methylurea]: the pIC50 in test [1] is 7.42; in test [2], 7.06.
Taken in the same sequence, the figures for `Cc1nc(COc2cc3[nH]c(CNC(=O)C(C)C)cc3cc2F)co1` [Compound 551, N-((5-fluoro-6-((2-methyloxazol-4-yl)methoxy)-1H-indol-2-yl)methyl)isobutyramide] were 5.75 and 6.02.
Taken in the same sequence, the figures for `CCC(=O)NCc1cc2cc(C)c(OCc3ccon3)cc2[nH]1` [Compound 530, N-((6-(isoxazol-3-ylmethoxy)-5-methyl-1H-indol-2-yl)methyl)propionamide] were 6.68 and 6.77.
For the compound `CC1(C(=O)NCc2cc3cc(C4CC4)c(OCc4cscn4)cc3[nH]2)CC1` [Compound 341, N-((5-cyclopropyl-6-(thiazol-4-ylmethoxy)-1H-indol-2-yl)methyl)-1-methylcyclopropane-1-carboxamide], the figures for the pIC50 in test [1] and in test [2] were 6.71 and 6.56, respectively.
The like results for `CC1(C(=O)NCc2cc3cc(Cl)c(OCC4CCC4)cc3[nH]2)CC1` [Compound 634, N-((5-chloro-6-(cyclobutylmethoxy)-1H-indol-2-y1)methyl)-1-methylcyclopropane-1-carboxamide] were, in that order, 6.77 and 6.39.
As for `CC(=O)NCc1cc2cc(Cl)c(OCc3cc(C)no3)cc2[nH]1` [Compound 218, N-((5-chloro-6-((3-methylisoxazol-5-yl)methoxy)-1H-indol-2-yl)methyl)acetamide], the negative-log IC50 (pIC50) in test [1] was 7.56; in test [2], 7.16.
The like results for `Cc1csc(COc2cc3[nH]c(CNC(=O)C4(C)CC4)cc3cc2Cl)n1` [Compound 24, N-((5-chloro-6-((4-methylthiazol-2-yl)methoxy)-1H-indol-2-yl)methyl)-1-methylcyclopropane-1-carboxamide] were, in that order, 6.65 and 6.39.
As to `CNC(=O)NCc1cc2cc(F)c(OCc3ccon3)cc2[nH]1` [Compound 216, 1-((5-fluoro-6-(isoxazol-3-ylmethoxy)-1H-indol-2-yl)methyl)-3-methylurea], the pIC50 in test [1] is 5.43; in test [2] it was 5.85.
As to `O=C(NCc1cc2cc(F)c(CCc3ccon3)cc2[nH]1)N1CCCC1` [Compound 603, N-((5-fluoro-6-(2-(isoxazol-3-yl)ethyl)-1H-indol-2-yl)methyl)pyrrolidine-1-carboxamide], the pIC50 in test [1] is 6.58; in test [2], 6.46.
The like results for `CC1(C(=O)NCc2cc3cc(Cl)c(OCc4ccno4)cc3[nH]2)CC1` [Compound 326, N-((5-chloro-6-(isoxazol-5-ylmethoxy)-1H-indol-2-yl)methyl)-1-methylcyclopropane-1-carboxamide] were, in that order, 6.90 and 6.71.
The like results for `O=C(NCc1cc2cc(Cl)c(OCc3ccon3)cc2[nH]1)C1(C(F)(F)F)CC1` [Compound 134, N-((5-chloro-6-(isoxazol-3-ylmethoxy)-1H-indol-2-yl)methyl)-1-(trifluoromethyl)cyclopropane-1-carboxamide] were, in that order, 7.08 and 6.73.
Taken in the same sequence, the figures for `CC1(C(=O)NCc2cc3cc(Cl)c(OCc4ccon4)c(Cl)c3[nH]2)CC1` [Compound 346, N-((5,7-dichloro-6-(isoxazol-3-ylmethoxy)-1H-indol-2-yl)methyl)-1-methylcyclopropane-1-carboxamide] were less than 4.30 and less than 5.02.
Take `CC1(C(=O)NCc2cc3cc(F)c(OCc4ccon4)cc3[nH]2)CCC1` [Compound 502, N-((5-fluoro-6-(isoxazol-3-ylmethoxy)-1H-indol-2-yl)methyl)-1-methylcyclobutane-1-carboxamide]: the pIC50 in test [1] is 5.75; in test [2], 5.67.
As to `O=C(NCc1cc2cc(F)c(OCc3cscn3)cc2[nH]1)N1CCCC1` [Compound 114, N-((5-fluoro-6-(thiazol-4-ylmethoxy)-1H-indol-2-yl)methyl)pyrrolidine-1-carboxamide], the values for the pIC50 in test [1] and in test [2] were 6.80 and 6.74, respectively.
